Patent US7517874B2 (priority 2007, dated 2009)
pEC50: −log10 of the molar value. Like-named read-outs stand apart in the source and are kept apart here.

Tests used:
[1] = molecular target: human CB1 receptor (hCB1) (Homo sapiens, UniProt P21554); experiment: cell-based; assay type: cell-based; conditions: for EC50: groups >100 nM-10 μM and >10 μM, cAMP, CHO-K1 hCB1, read-out: EC50 HCB1
Outline: (§1)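 Agonism or inverse agonism was assessed as change in intracellular cAMP in CHO-K1 cells expressing human CB1 or rat CB2 (genomic DNA, pcDNA3.1).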

[2] = molecular target: T1, rat CB2 receptor (rCB2) (Rattus norvegicus, UniProt Q9QZN9); experiment: cell-based; assay type: cell-based; conditions: for +/− RCB2: agonist or inverse agonist at rCB2
T1 sequence (Q9QZN9 1-360): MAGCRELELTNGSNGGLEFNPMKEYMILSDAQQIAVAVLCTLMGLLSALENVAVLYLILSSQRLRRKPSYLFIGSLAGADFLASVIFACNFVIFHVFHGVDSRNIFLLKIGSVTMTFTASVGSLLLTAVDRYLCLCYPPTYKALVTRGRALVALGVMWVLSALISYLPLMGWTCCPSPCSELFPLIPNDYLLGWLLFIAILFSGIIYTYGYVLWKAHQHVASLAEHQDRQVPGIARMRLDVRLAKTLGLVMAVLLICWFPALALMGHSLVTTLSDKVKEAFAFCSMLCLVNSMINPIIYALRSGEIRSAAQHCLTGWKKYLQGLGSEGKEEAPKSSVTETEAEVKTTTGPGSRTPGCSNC
Outline: as §1

Sequence of human CB1 receptor (hCB1) (P21554 whole entry): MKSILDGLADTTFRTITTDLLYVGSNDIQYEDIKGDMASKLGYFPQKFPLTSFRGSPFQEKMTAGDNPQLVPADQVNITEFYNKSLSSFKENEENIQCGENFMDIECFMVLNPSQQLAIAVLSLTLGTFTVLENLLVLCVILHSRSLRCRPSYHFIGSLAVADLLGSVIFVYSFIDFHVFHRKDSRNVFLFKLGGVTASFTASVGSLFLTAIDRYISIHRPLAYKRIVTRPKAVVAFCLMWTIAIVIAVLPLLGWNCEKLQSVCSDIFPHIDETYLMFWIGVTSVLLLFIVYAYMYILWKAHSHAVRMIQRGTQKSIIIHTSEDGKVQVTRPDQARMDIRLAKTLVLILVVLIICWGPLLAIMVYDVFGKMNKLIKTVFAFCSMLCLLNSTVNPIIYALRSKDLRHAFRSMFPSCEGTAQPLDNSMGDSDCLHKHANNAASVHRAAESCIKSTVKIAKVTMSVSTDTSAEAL

Q: How did the pEC50 [1] turn out when `CC(C)CCNC(=O)c1nc(-c2ccc(Cl)cc2)n2c1CN(C(=O)C1CC1)CC2` [Compound 131, 3-(4-chlorophenyl)-7-(cyclopropanecarbonyl)-N-isopentyl-5,6,7,8-tetrahydroimidazo[1,5-a]pyrazine-1-carboxamide] was run?
A: < 5.00

Q: What about the “+/− RCB2” value [2] of the same compound?
A: −

Q: How did the pEC50 [1] turn out when `C[C@@H](NC(=O)c1nc(-c2ccccc2)n2c1CN(C(=O)C1CC1)CC2)C1CCCCC1` [Compound 132, (R)-N-(1-cyclohexylethyl)-7-(cyclopropanecarbonyl)-3-phenyl-5,6,7,8-tetrahydroimidazo[1,5-a]pyrazine-1-carboxamide] was run?
A: < 5.00

Q: What about the “+/− RCB2” value [2] of the same compound?
A: −

Q: With `C[C@@H](NC(=O)c1nc(-c2ccccc2)n2c1CN(C(=O)C(C)(C)C)CC2)C1CCCCC1` [Compound 133, (R)-N-(1-cyclohexylethyl)-3-phenyl-7-pivaloyl-5,6,7,8-tetrahydroimidazo[1,5-a]pyrazine-1-carboxamide] as the compound, how does the pEC50 [1] read?
A: < 5.00

Q: What about the “+/− RCB2” value [2] of the same compound?
A: −

Q: `O=C(NCC1CCOCC1)c1nc(-c2ccccc2)n2c1CN(C(=O)C1CC1)CC2` [Compound 134, 7-(cyclopropanecarbonyl)-3-phenyl-N-((tetrahydro-2H-pyran-4-yl)methyl)-5,6,7,8-tetrahydroimidazo[1,5-a]pyrazine-1-carboxamide] was tested. Which EC50 [1] did it give?
A: > 10000 nM

Q: And the “+/− RCB2” value [2]?
A: −

Q: How did the EC50 [1] turn out when `O=C(NCC1CCOCC1)c1nc(-c2ccccc2)n2c1CN(C(=O)C1CCOC1)CC2` (stereo not shown) [Compound 135, 3-phenl-N-((tetrahydro-2H-pyran-4-yl)methyl)-7-(tetrahydrofuran-3-carbonyl)-5,6,7,8-tetrahydroimidazo[1,5-a]pyrazine-1-carboxamide] was run?
A: > 10000 nM

Q: What about the EC50 ([2]; groups >100 nM-10 μM and >10 μM, cAMP, CHO-K1 rCB2, read-out: EC50 RCB2) of the same compound?
A: > 10000 nM

Q: How did the EC50 [1] turn out when `O=C(NC1CCCCC1)c1nc(-c2ccccc2)n2c1CN(C(=O)C1CC1)CC2` [Compound 136, N-cyclohexyl-7-(cyclopropanecarbonyl)-3-phenyl-5,6,7,8-tetrahydroimidazo[1,5-a]pyrazine-1-carboxamide] was run?
A: > 10000 nM

Q: What about the “+/− RCB2” value [2] of the same compound?
A: −

Q: Which results are given for `CC(C)(C)C(=O)N1CCn2c(-c3ccccc3)nc(C(=O)NC3CCCCC3)c2C1` [Compound 137, N-cyclohexyl-3-phenyl-7-pivaloyl-5,6,7,8-tetrahydroimidazo[1,5-a]pyrazine-1-carboxamide]?
A: EC50 [1]: > 10000 nM; +/− RCB2 [2]: −

Q: Which results are given for `O=C(NC1CCCCC1)c1nc(-c2ccccc2)n2c1CN(C(=O)c1ccoc1)CC2` [Compound 138, N-cyclohexyl-7-(furan-3-carbonyl)-3-phenyl-5,6,7,8-tetrahydroimidazo[1,5-a]pyrazine-1-carboxamide]?
A: EC50 [1]: > 10000 nM; +/− RCB2 [2]: −

Q: How did the pEC50 [1] turn out when `C[C@@H](NC(=O)c1nc(-c2ccccc2)n2c1CN(C(=O)C1CCOC1)CC2)C1CCCCC1` (stereo partly drawn) [Compound 139, N-((R)-1-cyclohexylethyl)-3-phenyl-7-(tetrahydrofuran-3-carbonyl)-5,6,7,8-tetrahydroimidazo[1,5-a]pyrazine-1-carboxamide] was run?
A: < 5.00

Q: And the “+/− RCB2” value [2]?
A: −

Q: How did the pEC50 [1] turn out when `C[C@@H](NC(=O)c1nc(-c2ccccc2)n2c1CN(CCO)CC2)C1CCCCC1` [Compound 140, (R)-N-(1-cyclohexylethyl)-7-(2-hydroxyethyl)-3-phenyl-5,6,7,8-tetrahydroimidazo[1,5-a]pyrazine-1-carboxamide] was run?
A: < 5.00

Q: What about the “+/− RCB2” value [2] of the same compound?
A: −

Q: How did the pEC50 [1] turn out when `O=C(NC1CCCCC1)c1nc(-c2ccccc2)n2c1CN(CC1CCOC1)CC2` (stereo not shown) [Compound 141, N-cyclohexyl-3-phenyl-7-((tetrahydrofuran-3-yl)methyl)-5,6,7,8-tetrahydroimidazo[1,5-a]pyrazine-1-carboxamide] was run?
A: < 5.00

Q: And the “+/− RCB2” value [2]?
A: −

Q: How did the pEC50 [1] turn out when `CC(C)CN1CCn2c(-c3ccccc3)nc(C(=O)NC3C4(C)CCC(C4)C3(C)C)c2C1` (stereo not shown) [Compound 142, 7-isobutyl-3-phenyl-N-(1,3,3-trimethylbicyclo[2.2.1]heptan-2-yl)-5,6,7,8-tetrahydroimidazo[1,5-a]pyrazine-1-carboxamide] was run?
A: < 5.00

Q: What about the “+/− RCB2” value [2] of the same compound?
A: −

Q: What does the source list for `CC12CCC(C1)C(C)(C)C2NC(=O)c1nc(-c2ccccc2)n2c1CN(CCO)CC2` (stereo not shown) [Compound 143, 7-(2-hydroxyethyl)-3-phenyl-N-(1,3,3-trimethylbicyclo[2.2.1]heptan-2-yl)-5,6,7,8-tetrahydroimidazo[1,5-a]pyrazine-1-carboxamide]?
A: pEC50 [1]: < 5.00; +/− RCB2 [2]: −

Q: With `CCN1CCn2c(-c3ccccc3)nc(C(=O)NC3C4(C)CCC(C4)C3(C)C)c2C1` (stereo not shown) [Compound 144, 7-ethyl-3-phenyl-N-(1,3,3-trimethylbicyclo[2.2.1]heptan-2-yl)-5,6,7,8-tetrahydroimidazo[1,5-a]pyrazine-1-carboxamide] as the compound, how does the pEC50 [1] read?
A: < 5.00

Q: And the “+/− RCB2” value [2]?
A: −

Q: Which results are given for `CC(C)CN1CCn2c(-c3ccccc3)nc(C(=O)N[C@@H](C)c3ccccc3)c2C1` [Compound 145, (S)-7-isobutyl-3-phenyl-N-(1-phenylethyl)-5,6,7,8-tetrahydroimidazo[1,5-a]pyrazine-1-carboxamide]?
A: pEC50 [1]: < 5.00; +/− RCB2 [2]: −

Q: `C[C@H](NC(=O)c1nc(-c2ccccc2)n2c1CN(CCO)CC2)c1ccccc1` [Compound 146, (S)-7-(2-hydroxyethyl)-3-phenyl-N-(1-phenylethyl)-5,6,7,8-tetrahydroimidazo[1,5-a]pyrazine-1-carboxamide] was tested. Which pEC50 [1] did it give?
A: < 5.00

Q: What about the “+/− RCB2” value [2] of the same compound?
A: −

Q: `CCN1CCn2c(-c3ccccc3)nc(C(=O)N[C@@H](C)c3ccccc3)c2C1` [Compound 147, (S)-7-ethyl-3-phenyl-N-(1-phenylethyl)-5,6,7,8-tetrahydroimidazo[1,5-a]pyrazine-1-carboxamide] was tested. Which pEC50 [1] did it give?
A: < 5.00

Q: What about the “+/− RCB2” value [2] of the same compound?
A: −

Q: `CNC(=O)[C@@H](NC(=O)c1nc(-c2ccccc2)n2c1CN(CC(C)C)CC2)C(C)(C)C` [Compound 148, (S)-N-(3,3-dimethyl-1-(methylamino)-1-oxobutan-2-yl)-7-isobutyl-3-phenyl-5,6,7,8-tetrahydroimidazo[1,5-a]pyrazine-1-carboxamide] was tested. Which pEC50 [1] did it give?
A: < 5.00

Q: What about the “+/− RCB2” value [2] of the same compound?
A: −

Q: What does the source list for `CCN1CCn2c(-c3ccccc3)nc(C(=O)N[C@H](C(=O)NC)C(C)(C)C)c2C1` [Compound 149, (S)-N-(3,3-dimethyl-1-(methyalmino)-1-oxobutan-2-yl)-7-ethyl-3-phenyl-5,6,7,8-tetrahydroimidazo[1,5-a]pyrazine-1-carboxamide]?
A: pEC50 [1]: < 5.00; +/− RCB2 [2]: −

Q: How did the pEC50 [1] turn out when `CC(C)CN1CCn2c(-c3ccccc3)nc(C(=O)Nc3ccccc3)c2C1` [Compound 150, 7-isobutyl-N,3-diphenyl-5,6,7,8-tetrahydroimidazo[1,5-a]pyrazine-1-carboxamide] was run?
A: < 5.00

Q: What about the “+/− RCB2” value [2] of the same compound?
A: −

Q: With `O=C(Nc1ccccc1)c1nc(-c2ccccc2)n2c1CN(CCO)CC2` [Compound 151, 7-(2-hydroxyethyl)-N,3-diphenyl-5,6,7,8-tetrahydroimidazo[1,5-a]pyrazine-1-carboxamide] as the compound, how does the EC50 [1] read?
A: > 10000 nM

Q: What about the “+/− RCB2” value [2] of the same compound?
A: −

Q: `CCN1CCn2c(-c3ccccc3)nc(C(=O)Nc3ccccc3)c2C1` [Compound 152, 7-ethyl-N,3-diphenyl-5,6,7,8-tetrahydroimidazo[1,5-a]pyrazine-1-carboxamide] was tested. Which pEC50 [1] did it give?
A: < 5.00

Q: What about the “+/− RCB2” value [2] of the same compound?
A: −

Q: With `CNC(=O)[C@@H](NC(=O)c1nc(-c2ccccc2)n2c1CN(CCO)CC2)C(C)(C)C` [Compound 153, (S)-N-(3,3-dimethyl-1-(methylamino)-1-oxobutan-2-yl)-7-(2-hydroxyethyl)-3-phenyl-5,6,7,8-tetrahydroimidazo[1,5-a]pyrazine-1-carboxamide] as the compound, how does the pEC50 [1] read?
A: < 5.00

Q: And the “+/− RCB2” value [2]?
A: −

Q: What does the source list for `CCCN1CCn2c(-c3ccccc3)nc(C(=O)Nc3ccccc3)c2C1` [Compound 154, N,3-diphenyl-7-propyl-5,6,7,8-tetrahydroimidazo[1,5-a]pyrazine-1-carboxamide]?
A: pEC50 [1]: < 5.00; +/− RCB2 [2]: −

Q: With `CC(C)CN1CCn2c(-c3ccccc3)nc(C(=O)NN3CCCCC3)c2C1` [Compound 155, 7-isobutyl-3-phenyl-N-(piperidin-1-yl)-5,6,7,8-tetrahydroimidazo[1,5-a]pyrazine-1-carboxamide] as the compound, how does the pEC50 [1] read?
A: < 5.00

Q: What about the “+/− RCB2” value [2] of the same compound?
A: −

Q: `O=C(NN1CCCCC1)c1nc(-c2ccccc2)n2c1CN(CCO)CC2` [Compound 156, 7-(2-hydroxyethyl)-3-phenyl-N-(piperidin-1-yl)-5,6,7,8-tetrahydroimidazo[1,5-a]pyrazine-1-carboxamide] was tested. Which EC50 [1] did it give?
A: > 10000 nM

Q: And the “+/− RCB2” value [2]?
A: −

Q: With `CC(C)CCNC(=O)c1nc(-c2ccc(Cl)cc2)n2c1CN(CC(C)C)CC2` [Compound 157, 3-(4-chlorophenyl)-7-isobutyl-N-isopentyl-5,6,7,8-tetrahydroimidazo[1,5-a]pyrazine-1-carboxamide] as the compound, how does the pEC50 [1] read?
A: < 5.00

Q: What about the “+/− RCB2” value [2] of the same compound?
A: −

Q: How did the pEC50 [1] turn out when `CCN1CCn2c(-c3ccc(Cl)cc3)nc(C(=O)NCCC(C)C)c2C1` [Compound 158, 3-(4-chlorophenyl)-7-ethyl-N-isopentyl-5,6,7,8-tetrahydroimidazo[1,5-a]pyrazine-1-carboxamide] was run?
A: < 5.00

Q: What about the “+/− RCB2” value [2] of the same compound?
A: −

Q: `CC(C)CCNC(=O)c1nc(-c2ccc(Cl)cc2)n2c1CN(CCO)CC2` [Compound 159, 3-(4-chlorophenyl)-7-(2-hydroxyethyl)-N-isopentyl-5,6,7,8-tetrahydroimidazo[1,5-a]pyrazine-1-carboxamide] was tested. Which EC50 [1] did it give?
A: > 10000 nM

Q: What about the “+/− RCB2” value [2] of the same compound?
A: −
